# Results from the OligoGym collection.
# Where “and” joins values, the source holds several entries; their conditions need not be identical. Identical values can stand only once. After the bases stand the sugars from the 5' end (letter, count) and the backbone: PS all phosphorothioate, else s phosphorothioate and o phosphodiester by linkage. HELM strings list units from the 5' end as sugar, base in round brackets, then linkage (d deoxyribose, r ribose, m 2'-O-methyl, p phosphodiester). Methylation of C is not given here. [moe] = 2'-O-(2-methoxyethyl) (MOE); [cEt] = constrained ethyl (cEt); [sp] = phosphorothioate linkage; e = 2'-O-(2-methoxyethyl) (MOE); k = constrained ethyl (cEt); d = 2'-deoxy (DNA)
# Tests used:
# KRAS = details: ASO
# HBV = details: ASO, HepG2, 0.07 µM
Substance,"target mRNA inhibition (KRAS; A431, 2 µM)",target mRNA inhibition (HBV),further results
"AAAAAAAAATTAATGT (sugars k3 d10 k3, PS)",16%,,
"AAAAAAATTAATGTCT (sugars k3 d10 k3, PS)",7%,,
"AAAAGTGTTTATGCAA (sugars k3 d10 k3, PS)",32%,,
"AAAGTGTTTATGCAAT (sugars k3 d10 k3, PS)",29%,,
"AAATTAATGTCTTGGC (sugars k3 d10 k3, PS)",47%,,
"AACAAATGCTAATAAT (sugars k3 d10 k3, PS)",0%,,
"AACCAGTGTTAAGAGA (sugars k3 d10 k3, PS)",35%,,
"AATAATCCCCATTTCA (sugars k3 d10 k3, PS)",16%,,
"AATGGTGAATATCTTC (sugars k3 d10 k3, PS)",50%,,"target mRNA inhibition (KRAS; A431, 0.037 µM): 58%; target mRNA inhibition (KRAS; A431, 5 µM): 97% and 90%; target mRNA inhibition (KRAS; NCI-H460, 0.037 µM): 33.3%"
"ACAAATGCTAATAATT (sugars k3 d10 k3, PS)",1%,,
"ACCAGTGTTAAGAGAA (sugars kdddddddddkekeke, PS)",50%,,
"ACCAGTGTTAAGAGAA (sugars kkkdddddddddkeke, PS)",40%,,
"ACCAGTGTTAAGAGAA (sugars kkkddddddddkekek, PS)",51%,,
"ACCATTCAAAGTTCAC (sugars kkdddddddddkekek, PS)",36%,,
"ACCATTCAAAGTTCAC (sugars kkkddddddddkdkdk, PS)",12%,,
"ACTTGAAAAGTGTTTA (sugars k3 d10 k3, PS)",16%,,
"ACTTGTACTAGTATGC (sugars k3 d10 k3, PS)",51%,,
"AGATTGTGCTGAGCTT (sugars kkdddddddddkekek, PS)",38%,,
"AGATTGTGCTGAGCTT (sugars kkddddddddkekekk, PS)",0%,,
"AGATTGTGCTGAGCTT (sugars kkkdddddddddkeke, PS)",43%,,
"AGATTGTGCTGAGCTT (sugars kkkddddddddkekek, PS)",26%,,
"AGCTATTAGGAGTCTT (sugars k3 d10 k3, PS)",35%,,
"AGGAGTCTTTATAGTA (sugars k3 d9 k3 e1, PS)",6%,,
"AGGAGTCTTTATAGTA (sugars kdddddddddkekeke, PS)",24%,,
"AGGAGTCTTTATAGTA (sugars kkkdddddddddkeke, PS)",31%,,
"AGGCAAGATGACACTA (sugars k3 d10 k3, PS)",21%,,
"AGGCATTGCTAGTTCA (sugars k3 d10 k3, PS)",55%,,
"AGTCTATTTCAGGCGG (sugars k3 d10 k3, PS)",,,"target mRNA inhibition (KRAS; A431, 5 µM): 50%"

Substance,"target mRNA inhibition (KRAS; A431, 2 µM)",target mRNA inhibition (HBV),further results
"AGTGTGACTCAGTTAA (sugars k3 d10 k3, PS)",53%,,
"AGTGTGACTCAGTTAA (sugars kkdddddddddkekek, PS)",48%,,
"ATCTTGTTGAGCTATC (sugars k3 d10 k3, PS)",40%,,
"ATGCTAATAATTTAGT (sugars k3 d10 k3, PS)",11%,,
"ATGCTGTGAAACTCTC (sugars k3 d10 k3, PS)",58% and 52% and 39%,,"target mRNA inhibition (KRAS; A431, 0.185 µM): 26%; target mRNA inhibition (KRAS; A431, 0.556 µM): 42%; target mRNA inhibition (KRAS; A431, 1.667 µM): 47%; target mRNA inhibition (KRAS; A431, 5 µM): 72%"
"ATGCTGTGAAACTCTC (sugars kkdddddddddkekek, PS)",16%,,
RNA1{[moe](T)[sp].[moe](G)[sp].[moe](A)[sp].[moe](A)[sp].[moe](G)[sp].d(C)[sp].d(G)[sp].d(A)[sp].d(A)[sp].d(G)[sp].d(T)[sp].d(G)[sp].d(C)[sp].d(A)[sp].[moe](C)[sp].[moe](A)[sp].[moe](C)}$$$$V2.0,,13% and 38%,
RNA1{[moe](T)[sp].[moe](G)[sp].[moe](A)[sp].[moe](G)[sp].[moe](G)[sp].d(C)[sp].d(A)[sp].d(T)[sp].d(A)[sp].d(G)[sp].d(C)[sp].d(A)[sp].d(G)[sp].d(C)[sp].[moe](A)[sp].[moe](G)[sp].[moe](G)}$$$$V2.0,,45% and 44%,
RNA1{[moe](T)[sp].[moe](G)[sp].[moe](A)[sp].d(A)[sp].d(G)[sp].d(C)[sp].d(G)[sp].d(A)[sp].d(A)[sp].d(G)[sp].d(T)[sp].d(G)[sp].[moe](C)[sp].[moe](A)[sp].[moe](C)[sp].[moe](A)[sp].[moe](C)}$$$$V2.0,,74% and 60%,
RNA1{[moe](T)[sp].[moe](G)[sp].[moe](A)[sp].d(G)[sp].d(G)[sp].d(C)[sp].d(A)[sp].d(T)[sp].d(A)[sp].d(G)[sp].d(C)[sp].d(A)[sp].[moe](G)[sp].[moe](C)[sp].[moe](A)[sp].[moe](G)}$$$$V2.0,,60% and 49%,
RNA1{[moe](T)[sp].[moe](G)[sp].[moe](C)[sp].[moe](A)[sp].[moe](G)[sp].[moe](A)[sp].d(G)[sp].d(G)[sp].d(T)[sp].d(G)[sp].d(A)[sp].d(A)[sp].d(G)[sp].d(C)[sp].d(G)[sp].[moe](A)[sp].[moe](A)}$$$$V2.0,,74% and 63%,
RNA1{[moe](T)[sp].[moe](G)[sp].[moe](C)[sp].[moe](A)[sp].[moe](G)[sp].d(A)[sp].d(G)[sp].d(G)[sp].d(T)[sp].d(G)[sp].d(A)[sp].d(A)[sp].d(G)[sp].d(C)[sp].[moe](G)[sp].[moe](A)}$$$$V2.0,,61% and 52%,
RNA1{[moe](T)[sp].[moe](G)[sp].d(A)[sp].d(A)[sp].d(G)[sp].d(C)[sp].d(G)[sp].d(A)[sp].d(A)[sp].d(G)[sp].d(T)[sp].[moe](G)[sp].[moe](C)[sp].[moe](A)[sp].[moe](C)[sp].[moe](A)}$$$$V2.0,,69% and 54%,
RNA1{[moe](T)[sp].[moe](G)[sp].d(C)[sp].d(A)[sp].d(G)[sp].d(A)[sp].d(G)[sp].d(G)[sp].d(T)[sp].d(G)[sp].d(A)[sp].[moe](A)[sp].[moe](G)[sp].[moe](C)[sp].[moe](G)[sp].[moe](A)}$$$$V2.0,,46% and 36%,
RNA1{[moe](T)[sp].[moe](G)[sp].d(G)[sp].d(A)[sp].d(G)[sp].d(C)[sp].d(C)[sp].d(A)[sp].d(C)[sp].d(C)[sp].d(A)[sp].[moe](G)[sp].[moe](C)[sp].[moe](A)[sp].[moe](G)[sp].[moe](G)}$$$$V2.0,,29% and 41%,
RNA1{[moe](T)[sp].[moe](T)[sp].[moe](A)[sp].[moe](T)[sp].[moe](G)[sp].d(C)[sp].d(C)[sp].d(T)[sp].d(A)[sp].d(C)[sp].d(A)[sp].d(G)[sp].d(C)[sp].d(C)[sp].[moe](T)[sp].[moe](C)}$$$$V2.0,,53% and 42%,
RNA1{[moe](T)[sp].[moe](T)[sp].[moe](A)[sp].d(T)[sp].d(G)[sp].d(C)[sp].d(C)[sp].d(T)[sp].d(A)[sp].d(C)[sp].d(A)[sp].d(G)[sp].[moe](C)[sp].[moe](C)[sp].[moe](T)[sp].[moe](C)[sp].[moe](C)}$$$$V2.0,,61% and 54%,
RNA1{[moe](T)[sp].[moe](T)[sp].[moe](A)[sp].d(T)[sp].d(G)[sp].d(C)[sp].d(C)[sp].d(T)[sp].d(A)[sp].d(C)[sp].d(A)[sp].d(G)[sp].d(C)[sp].[cEt](C)[sp].[cEt](T)[sp].[cEt](C)}$$$$V2.0,,37% and 53%,
RNA1{[moe](T)[sp].[moe](T)[sp].[moe](C)[sp].[moe](C)[sp].[moe](G)[sp].d(C)[sp].d(A)[sp].d(G)[sp].d(T)[sp].d(A)[sp].d(T)[sp].d(G)[sp].d(G)[sp].d(A)[sp].[moe](T)[sp].[moe](C)[sp].[moe](G)}$$$$V2.0,,65% and 59%,
RNA1{[moe](T)[sp].[moe](T)[sp].[moe](C)[sp].[moe](C)[sp].d(G)[sp].d(C)[sp].d(A)[sp].d(G)[sp].d(T)[sp].d(A)[sp].d(T)[sp].d(G)[sp].d(G)[sp].[moe](A)[sp].[moe](T)[sp].[moe](C)}$$$$V2.0,,43% and 49%,
RNA1{[moe](T)[sp].[moe](T)[sp].[moe](C)[sp].d(C)[sp].d(G)[sp].d(C)[sp].d(A)[sp].d(G)[sp].d(T)[sp].d(A)[sp].d(T)[sp].d(G)[sp].[moe](G)[sp].[moe](A)[sp].[moe](T)[sp].[moe](C)}$$$$V2.0,,53% and 50%,
RNA1{[moe](T)[sp].[moe](T)[sp].[moe](C)[sp].d(C)[sp].d(G)[sp].d(C)[sp].d(A)[sp].d(G)[sp].d(T)[sp].d(A)[sp].d(T)[sp].d(G)[sp].d(G)[sp].[cEt](A)[sp].[cEt](T)[sp].[cEt](C)}$$$$V2.0,,60% and 68%,
RNA1{[moe](T)[sp].[moe](T)[sp].[moe](T)[sp].[moe](A)[sp].d(T)[sp].d(G)[sp].d(C)[sp].d(C)[sp].d(T)[sp].d(A)[sp].d(C)[sp].d(A)[sp].d(G)[sp].[moe](C)[sp].[moe](C)[sp].[moe](T)}$$$$V2.0,,51% and 38%,
RNA1{[moe](T)[sp].[moe](T)[sp].[moe](T)[sp].d(A)[sp].d(T)[sp].d(G)[sp].d(C)[sp].d(C)[sp].d(T)[sp].d(A)[sp].d(C)[sp].d(A)[sp].[moe](G)[sp].[moe](C)[sp].[moe](C)[sp].[moe](T)[sp].[moe](C)}$$$$V2.0,,62% and 49%,
RNA1{[moe](T)[sp].[moe](T)[sp].d(A)[sp].d(T)[sp].d(G)[sp].d(C)[sp].d(C)[sp].d(T)[sp].d(A)[sp].d(C)[sp].d(A)[sp].[moe](G)[sp].[moe](C)[sp].[moe](C)[sp].[moe](T)[sp].[moe](C)[sp].[moe](C)}$$$$V2.0,,56% and 57%,
RNA1{[moe](T)[sp].[moe](T)[sp].d(A)[sp].d(T)[sp].d(G)[sp].d(C)[sp].d(C)[sp].d(T)[sp].d(A)[sp].d(C)[sp].d(A)[sp].[moe](G)[sp].[moe](C)[sp].[moe](C)[sp].[moe](T)[sp].[moe](C)}$$$$V2.0,,44% and 46%,
RNA1{[moe](T)[sp].[moe](T)[sp].d(C)[sp].d(C)[sp].d(G)[sp].d(C)[sp].d(A)[sp].d(G)[sp].d(T)[sp].d(A)[sp].d(T)[sp].[moe](G)[sp].[moe](G)[sp].[moe](A)[sp].[moe](T)[sp].[moe](C)[sp].[moe](G)}$$$$V2.0,,67% and 72%,
